From patent EP1351565B1, “CHEMICAL INHIBITORS OF MISMATCH REPAIR” (Morphotek, Inc., priority 2001, dated 2002)

Tests used:
[1] = system: immortalized human breast epithelial cells; details: cited from earlier work
[2] = system: Arabidopsis thaliana; assay: New phenotypes in offspring of chemically treated Arabidopsis plants; assay type: in vivo
Experimental: Next, 50 seeds were plated in two 150mm dishes containing 2mM DMA, 250 µM EMS or no drug. Seeds were grown for 10 days and then 10 plants from each plate were transferred to soil. All plants appeared to be similar in color and height. Plants were grown at room temperature with daily cycles of 18 hr light and 6 hr dark. After 45 days seeds are harvested from siliques and stored in a desiccator at 4°C for 72 hours. Seeds are then sterilized and 100 seeds from each plant is sown directly into water-saturated soil and grown at room temperature with daily cycles of 18 hr light and 6 hr dark. […] These 7 altered plants were light green in color and appeared to grow slower. […] DMA-exposed plants produced offspring that were yellow in appearance in contrast to dark green, which is always found in wild-type plants. In addition, the yellow plants were also shorter. After 30 days, most wild-type plants produced flowers and siliques, while the 7 mutants just began flowering. After 45 days, control plants were harvested while mutant plants were harvested 10 to 15 days later.

[3] = rat-liver microsomal preparations; cited from earlier work
[4] = system: H36pCAR-OF cell line; assay: H36pCAR-OF screening assay (MMR-sensitive β-galactosidase reporter); assay type: cell-based, murine
[5] = system: Pichia yeast containing a pGUS-OF reporter system; assay: Pichia yeast pGUS-OF reporter assay for MMR blockade; assay type: cell-based; details: 300 µM, 48 hours
Experimental: Briefly, the GUS-OF and GUS-IF gene, which contains a polyA repeat at the N-terminus of the protein was subcloned from the pCR=IF-GUS and pCR-OF-GUS plasmids into the EcoRI site of the pGP vector, which is a consitutively expressed yeast vector containing a zeocin resistance gene as selectable marker. pGP-GUS-IF and pGP-GUS-OF vectors were electroporated into competent Pichia cells using standard methods known by those skilled in the art. Cells were plated on YPD agar (10g/L yeast extract; 20 g/L peptone; 2% glucose; 1.5% bactoagar) plates containing 100 µg/ml zeocin. Recombinant yeast are then analyzed for GUS expression/function by replica plating on YPD agar plates containing 100 µg/ml zeocin plus 1 mg/ml X-glu (5-bromo-4-chloro-3-indoyl-beta-D-glucuronide sodium salt) and grown at 30°C for 16 hours. […] None of the yeast containing the GUS-OF turned blue in the presence of the X-glu substrate under normal growth conditions.
After incubation, yeast were plated on YPD-ZEO-X-GLU plates and grown at 30°C for 16 hours.

[6] = at high concentrations; cited from earlier work
[7] = system: human HEK293 cells; assay: Microsatellite instability of endogenous BAT26 marker in 293 cells; assay type: cell-based; details: 250 µM DMA
Experimental: Briefly, […] were grown in control medium or 250 µM DMA, a concentration that is found to be non-toxic, for 14 to 17 days. Cells are then harvested and genomic DNA isolated using the salting out method (Nicolaides, N.C. et al. (1991) Mol. Cell. Biol. 11 :6166-6176.).
Various amounts of test DNAs from HCT116 (a human colon epithelial cell line) and 293 were first used to determine the sensitivity of our microsatellite test. The BAT26 alleles are known to be heterogeneous between these two cell lines and the products migrate at different molecular weights (Nicolaides personal observation). DNAs were diluted by limiting dilution to determine the level of sensitivity of the assay. DNAs were PCR amplified using the BAT26F: 5'-[…]-3' (SEQ ID NO:43) and the BAT26R: 5'-[…]-3' (SEQ ID NO:44) primers in buffers as described (Nicolaides, N.C. et al. (1995) Genomics 30:195-206). Briefly 1 pg to 100 ngs of DNA were amplified using the following conditions: 94°C for 30 sec, 58°C for 30 sec, 72°C for 30 sec for 30 cycles. […]
To measure for microsatellite stability in 293 cells grown with or without DMA, 0.1 ngs of DNA from DMA-treated or control 293 cells were amplified using the reaction conditions above. […] Fifty bacterial colonies were analyzed for BAT26 structure by directly adding an aliquot of live bacteria to the PCR mix. […]

[8] = system: Arabidopsis thaliana; assay: Toxicity curve of DMA and EMS on Arabidopsis seeds (root and shoot formation); assay type: in vivo
Experimental: Briefly, AT seeds were sterilized with straight commercial bleach and 100 seeds were plated in 100mm Murashige and Skoog (MS) phytagar (Life Technology) plates with increasing amounts of DMA (ranging from 100µm to 50mM). A similar amount of seeds were plated on MS phytagar only or in MS phytagar with increasing amounts of EMS (100µM to 50mM), a mutagen commonly used to mutate AT seeds (McCallum, C.M.et al. (2000) Nat. Biotechnol.18:455-457). Plates were grown in a temperature-controlled, fluorescent-lighted humidifier (Percival Growth Chamber) for 10 days. After 10 days, seeds were counted to determine toxicity levels for each compound. […] Plantlets that were identical to untreated seeds were scored healthy. Seeds with stunted root or shoot formation were scored intermediate (inter). Non-germinated seeds were scored dead. Table 2: Toxicity curve of DMA and EMS on Arabidopsis (per […])

[9] = system: human HEK293 cells; assay: Toxicity in HEK293 cells; assay type: cell-based; details: 250 µM, 293 cells
[10] = system: MMR activity; details: in vitro assays; cited from earlier work
[11] = system: MMR defective cell lines; details: cited from earlier work
[12] = concentration 0.5 (mM), 10 days
[13] = concentration 1.0 (mM), 10 days
[14] = concentration 2.5 (mM), 10 days
[15] = concentration 5.0 (mM), 10 days
[16] = concentration 12.5 (mM), 10 days
[17] = Arabidopsis thaliana, in vivo, 10 days, 0.1 mM
[18] = Arabidopsis thaliana, in vivo, 10 days, 0.5 mM
[19] = Arabidopsis thaliana, in vivo, 10 days, 1 mM
[20] = Arabidopsis thaliana, in vivo, 10 days, 2.5 mM
[21] = Arabidopsis thaliana, in vivo, 10 days, 5 mM
[22] = Arabidopsis thaliana, in vivo, 10 days, 10 mM
[23] = Arabidopsis thaliana, in vivo, 10 days, 12.5 mM
[24] = Arabidopsis thaliana, in vivo, 10 days, 25 mM
[25] = Arabidopsis thaliana, in vivo, 10 days, 50 mM

For `c1ccc2c(c1)cc1ccc3cccc4ccc2c1c34` [benzo [a]pyrene], the “effect on MMR activity” value [1] is listed as “MMR activity might have been blocked”.

For `Cc1c2ccccc2c(C)c2ccccc12` [DMA, 9,10-dimethylanthracene], the phenotypically distinct plants ([2]; offspring at day 10 of plants grown from seeds plated in 2mM DMA) is given as 7 out of 118, the metabolites formed [3] is given as “converted to 9-Hydroxymethyl-10-methylanthracene (9-OHMeMA) and 9,10-dihydroxymethyl-anthracene (9,10-DiOHMeA)” and the “MI and/or shifting of the polynucleotide tract in the pCAR-OF reporter (β-galactosidase positive cells)” value [4] is given as “shifting the pCAR-OF reporter plasmid”. The “blue subclones (GUS activity) on YPD-ZEO-X-GLU plates” value [5] was “a subset of yeast expressing GUS-OF contain blue subclones”, the mutagenicity [6] was “acts as a potent weak mutagen” and the “BAT26 alleles (microsatellite instability)” value ([7]; 14 to 17 days, PCR and 12% PAGE) was “showed the presence of an altered allele”. For the same compound, the “BAT26 polyA repeat length by sequence analysis” value ([7]; five clones sequenced, control homozygous 26nt polyA) was “multiple alleles ranging from the wild-type with 26 polyA repeat to shorter alleles (24 polyA repeat) and larger alleles (28 polyA repeat)”, the Dead ([8]; concentration 0.1 (mM), 10 days, non-germinated seeds scored dead) was 0 per 100 seeds and the Inter ([8]; concentration 0.1 (mM), 10 days, stunted root or shoot formation scored intermediate) was 0 per 100 seeds. The Healthy ([8]; concentration 0.1 (no unit in head; mM), MS phytagar, 10 days, identical to untreated seeds) was 94 per 100 seeds, the Dead [8, 12] was 0 per 100 seeds and the Inter [8, 12] was 0 per 100 seeds. The Healthy ([8]; concentration 0.5 (mM), MS phytagar, 10 days) was 99 per 100 seeds, the Dead [8, 13] was 0 per 100 seeds and the Inter [8, 13] was 0 per 100 seeds. It also gave a Healthy ([8]; concentration 1.0 (mM), MS phytagar, 10 days) of 99 per 100 seeds, a Dead [8, 14] of 0 per 100 seeds and an Inter [8, 14] of 20 per 100 seeds. It also gave a Healthy ([8]; concentration 2.5 (mM), MS phytagar, 10 days) of 80 per 100 seeds, a Dead [8, 15] of 0 per 100 seeds and an Inter [8, 15] of 15 per 100 seeds. For the same compound, the Healthy ([8]; concentration 5.0 (mM), MS phytagar, 10 days) was 85 per 100 seeds, the Dead ([8]; concentration 10 (mM), 10 days) was 0 per 100 seeds and the Inter ([8]; concentration 10 (mM), 10 days) was 32 per 100 seeds. For the same compound, the Healthy ([8]; concentration 10 (mM), MS phytagar, 10 days) was 65 per 100 seeds, the Dead [8, 16] was 0 per 100 seeds and the Inter [8, 16] was 85 per 100 seeds. It also gave a Healthy ([8]; concentration 12.5 (mM), MS phytagar, 10 days) of 0 per 100 seeds, a Dead ([8]; concentration 25 (mM), 10 days) of 0 per 100 seeds and an Inter ([8]; concentration 25 (mM), 10 days) of 100 per 100 seeds. The Healthy ([8]; concentration 25 (mM), MS phytagar, 10 days) was 0 per 100 seeds, the Dead ([8]; concentration 50 (mM), 10 days) was 100 per 100 seeds and the Inter ([8]; concentration 50 (mM), 10 days) was 0 per 100 seeds. The Healthy ([8]; concentration 50 (mM), MS phytagar, 10 days) was 0 per 100 seeds, the “concentration at which toxicity occurs” value ([8]; continuous culture, Arabidopsis seeds) was 10 mM and the toxicity [9] was “non-toxic”.

In the case of `Nc1ncnc2c1ncn2[C@@H]1O[C@H](COP(=O)(O)OP(=O)(O)OP(O)(O)=S)[C@@H](O)[C@H]1O` [ATP[gamma]S], the “effect on MMR activity” value [10] is listed as “block the MMR activity”.

For `COc1ccc2nc3cc(Cl)ccc3c(NCCCNCCCl)c2c1` [ICR191], the “mutation rates in MMR defective cell lines” value [11] is listed as “produce enhanced mutation rates in already MMR defective cell lines”.

In the case of `Nc1ncnc2c1ncn2[C@@H]1O[C@H](COP(=O)(O)OP(=O)(O)NP(=O)(O)O)[C@@H](O)[C@H]1O` [AMP-PNP], the “effect on MMR activity” value [10] is listed as “block the MMR activity”.

For `Cc1c2ccccc2c(C)c2c1ccc1ccccc12` [7,12-dimethylbenz[a]anthracene], the “effect on MMR activity” value [1] is listed as “MMR activity might have been blocked”.

For `CCOS(C)(=O)=O` [EMS, ethyl methanesulfonate], the phenotypically distinct plants ([2]; 150 offspring at day 10 of plants grown from seeds plated in 250 µM EMS) was “no phenotypic difference was observed”, the “MI and/or shifting of the polynucleotide tract in the pCAR-OF reporter (β-galactosidase positive cells)” value [4] was “did not result in MI” and the “blue subclones (GUS activity) on YPD-ZEO-X-GLU plates” value [5] was “none are seen”. For the same compound, the “concentration at which toxicity occurs” value ([8]; Arabidopsis thaliana, in vivo, 10 days) was 250 µm, the Healthy [8, 17] was 100 per 100 cells and the Inter [8, 17] was 0 per 100 cells. For the same compound, the Healthy [8, 18] was 45 per 100 cells, the Inter [8, 18] was 54 per 100 cells and the Healthy [8, 19] was 25 per 100 cells. For the same compound, the Inter [8, 19] was 75 per 100 cells, the Healthy [8, 20] was 0 per 100 cells and the Inter [8, 20] was 0 per 100 cells. The Healthy [8, 21] was 0 per 100 cells, the Inter [8, 21] was 0 per 100 cells and the Healthy [8, 22] was 0 per 100 cells. It also gave an Inter [8, 22] of 0 per 100 cells, a Healthy [8, 23] of 0 per 100 cells and an Inter [8, 23] of 0 per 100 cells. It also gave a Healthy [8, 24] of 0 per 100 cells, an Inter [8, 24] of 0 per 100 cells and a Healthy [8, 25] of 0 per 100 cells. It also gave an Inter [8, 25] of 0 per 100 cells.
